Laboratory results published in patent US7176234B2, “Derivatives of gambogic acid and analogs as activators of caspases and inducers of apoptosis” (priority 2002, dated 2007).
Read-outs that look alike come from different tables or passages of the source.

How the values were obtained:
[1] = Conversion of methyl 9,10-dihydro-10-morpholinyl-gambogate to methyl gambogate in biological media (HPLC); assay type: physicochemical; conditions: solution of compound B 5 mg/ml in 87.5% RPMI 1640, 37° C., HPLC peak area
Description: A solution of methyl 9,10-dihydro-10-morpholinyl-gambogate in 87.5% RPMI 1640 biological Media (Invitrogen Corporation, Carlsbad, Calif.), 5.6% EtOH, 1.3% DMSO, and 5.6% Cremophor EL at a concentration of 5 mg/ml was stored at 37° C. The amount of methyl 9,10-dihydro-10-morpholinyl-gambogate (compound B) and methyl gambogate (compound C) was measured by integration of the peak area. The HPLC was run in the Beckman System Gold with 32 Karate software under the following conditions: […]

KB cell line = conditions: cited from earlier work
HeLa cells = conditions: cited from earlier work
[2] = Pharmacokinetic studies in mice (plasma, LC/MS/MS); assay type: in vivo, ICR mice
Description: ICR mice were administered a single dose of drug into the tail vein. At each time point, 3 animals were sacrificed and the blood was withdrawn by cardiac puncture. The blood cells were spun down and the plasma was collected and frozen immediately in liquid nitrogen. For sample processing, the plasma was thawed and extraction solvent was added along with an internal standard to assess recoveries. The samples were vortexed followed by centrifugation, and the extraction solution was collected and subjected to LC/MS/MS analysis to identify and quantitate the compound plasma concentration. The levels of compound from the three animals at each time point were averaged and the pharmacokinetic parameters calculated using WinNonLin program. Table V summarized the major PK parameters.

KB-V1 cell line = conditions: cited from earlier work
[3] = tested on: human tumor xenograft models; experiment: Efficacy studies in human tumor xenograft models (text summary, model not named); assay type: in vivo, human tumor in nu/nu mice
Description: (§1) CD1 nu/nu mice were used. Viable tumor bits of transplantable human xenografts approximately 50 mg of trocar or cultured human tumor cells (nx106 cells?) were implanted subcutaneously into the flank region of mice and tumors were allowed to grow to the desired average size of 100 mg. The mice were measured for tumor size and those within the accepted tumor range of 75–125 mg, were randomized into control and treatment groups with 8–9 mice per group. Treatment was initiated on these groups which have an average starting tumor size of 100 mg. The control group was injected with the vehicle used to dissolve the drug. Injections were I.V. via the tail vein. Tumor measurements were taken every other day along with weights of animals and all animals were observed daily for survival. Tumor size was calculated by the equation of: Tumor volume=(length×width^2)/2.

HEL cells = conditions: cited from earlier work
ICR (CD-1) mice = experiment: Maximum tolerated dose (MTD) in mice, I.V.; assay type: in vivo; conditions: mice
Description: For acute toxicity studies, 3 ICR (CD-1) mice were used per each dose group. Animals were given a single bolus injection in the tail vein with approximately 100 μl volume of compound formulation or vehicle formulation. Mice body weights were measured daily along with daily observation for clinical abnormalities. The maximum tolerated dose (MTD) was defined as the dose that results in less than 10% decrease in body weight with no clinical abnormalities.
For multiple dose studies, the animals were dosed once a day for 5 days.
Table IV summarizes the MTD of gambogic acid and methyl 9,10-dihydro-10-morpholinyl-gambogate in mice by I.V. administration.

ZR75-1 (Breast cancer) = experiment: Efficacy in human tumor xenograft mouse model ZR75-1; assay type: in vivo, human tumor in CD1 nu/nu mice; conditions: ZR75-1 xenograft, 5 mg/kg, every other day, I.V.
Description: as §1

T-47D = experiment: Caspase cascade activation / apoptosis induction assay (N-(Ac-DEVD)-N'-ethoxycarbonyl-R110 substrate) in T-47D cells; assay type: cell-based, Human; conditions: for Caspase activity (Ratio): ratio of net RFU to control
Description: (§2) Human breast cancer cell lines T-47D and ZR-75-1 were grown according to media component mixtures designated by American Type Culture Collection+10% FCS (Invitrogen Corporation), in a 5% CO2-95% humidity incubator at 37° C. T-47D and ZR-75-1 cells were maintained at a cell density between 30 and 80% confluency and for HL-60 at a cell density of 0.1 to 0.6×10^6 cells/ml. Cells were harvested at 600×g and resuspended at 0.65×10^6 cells/mL into appropriate media+10% FCS. An aliquot of 45 μl of cells was added to a well of a 96-well microtiter plate containing 5 μl of a 10% DMSO in RPMI-1640 media solution containing 1.6 to 100 μM of gambogic acid or other test compound (0.16 to 10 μM final). An aliquot of 45 μl of cells was added to a well of a 96-well microtiter plate containing […] of a 10% DMSO in RPMI-1640 media solution without test compound as the control sample. The samples were mixed by agitation and then incubated at 37° C. for 24 h in a 5% CO2-95% humidity incubator. After incubation, the samples were removed from the incubator and 50 μl of a solution containing 20 μM of N-(Ac-DEVD)-N′-ethoxycarbonyl-R110 fluorogenic substrate SEQ ID NO:1 (Cytovia, Inc.; U.S. Pat. No. 6,335,429), 20% sucrose (Sigma), 20 mM DTT (Sigma), 200 mM NaCl (Sigma), 40 mM Na PIPES buffer pH 7.2 (Sigma), and 500 μg/mL lysolecithin (Calbiochem) was added. The samples were mixed by agitation and incubated at room temperature. Using a fluorescent plate reader (Model 1420 Wallac Instruments), an initial reading (T=0) was made approximately 1–2 min after addition of the substrate solution, employing excitation at 485 nm and emission at 530 nm, to determine the background fluorescence of the control sample. After approximately 3 h of incubation, the samples were read for fluorescence as above (T=3 h).
(§3) The Relative Fluorescence Unit values (RFU) were used to calculate the sample readings as follows: RFU(T=3h)−Control RFU(T=0)=Net RFU(T=3h)
(§4) The activity of caspase cascade activation was determined by the ratio of the net RFU value for derivatives of gambogic acid to that of control samples. The EC50 (nM) was determined by a sigmoidal dose-response calculation (Prism 2.0, GraphPad Software Inc.).
Methyl 9,10-dihydro-10-morpholinyl-gambogate and gambogic acid were assayed as described in Example 28 in T47D cells. The samples of cells and testing compound were incubated for 5 h and 24 h, respectively. Table II summarizes the caspase activity (Ratio) and potency (EC50) of methyl 9,10-dihydro-10-morpholinyl-gambogate (compound B) in the 5 h and 24 h assays, in comparison with that of gambogic acid (compound A).

ZR-75-1 = experiment: Caspase cascade activation / apoptosis induction assay (N-(Ac-DEVD)-N'-ethoxycarbonyl-R110 substrate) in ZR-75-1 cells; assay type: cell-based, Human; conditions: ZR-75-1, 24 h incubation; for Caspase activity (Ratio): ratio of net RFU to control; for EC50: read-out: Caspase potency EC50
Description: as §2, §3, §4

[4] = T-47D, 24 h incubation, read-out: Caspase potency EC50

COC(=O)/C(C)=C\C[C@@]12OC(C)(C)[C@@H]3C[C@@H](C=C4C(=O)c5c(O)c6c(c(CC=C(C)C)c5O[C@]431)O[C@](C)(CCC=C(C)C)C=C6)C2=O [C, Methyl gambogate]
Amount in biological media, 0 h ([1]; 0 h): 4 | Amount in biological media, 2 h ([1]; 2 h): 3 | Amount in biological media, 18 h ([1]; 18 h): 26 | Amount in biological media, 48 h ([1]; 48 h): 48 | Amount in biological media, 90 h ([1]; 90 h): 64

CC(C)=CCC[C@]1(C)C=Cc2c(O)c3c(c(CC=C(C)C)c2O1)O[C@]12C(=C[C@@H]4C[C@H]1C(C)(C)O[C@@]2(C/C=C(/C)C(=O)O)C4=O)C3=O [Compound A, Gambogic acid]
Cytotoxicity (KB cell line): cytotoxic | Cytotoxicity (HeLa cells): cytotoxic | T1/2, Terminal half-life ([2]; mice, single I.V. dose 5 mg/kg): 4.8 h | AUC (0-inf), Area under the curve ([2]; mouse, in vivo, iv, 5 mg/kg): 2,700 ng-h/ml | CL, Clearance ([2]; mouse, in vivo, iv, 5 mg/kg): 30.7 mL/min/kg | Vss, Vol. of distribution ([2]; mouse, in vivo, iv, 5 mg/kg): 2.9 L/kg | Cytotoxicity (KB-V1 cell line): cytotoxic | Best efficacy, tumor growth inhibition ([3]; human tumor cells s.c. in nu/nu mice, at doses that were toxic, not statistically significant): approximately 20% | Efficacy (in words) ([3]; summary of Table VI, gambogic acid at its maximal tolerable dose): did not produce significant efficacy | Cytotoxicity (HEL cells): cytotoxic | Multiple Dose MTD (ICR (CD-1) mice; I.V., once a day, 5 doses): 5 mg/kg | Injection site toxicity (ICR (CD-1) mice; tail vein injection): evidence of injection site toxicity, such as tail edema | % Tumor reduction (ZR75-1 (Breast cancer)): 20% | Activity in the caspase activation / apoptosis induction assay (in words), 5 h (T-47D; T47D cells, 5 h assay): active | Caspase activity (Ratio), 5 h (T-47D; T47D cells, 5 h assay): 29.5 | EC50 (T-47D; T47D cells, 5 h assay, read-out: Caspase potency EC50, 5 h): 1.74 µM | Activity in the caspase activation / apoptosis induction assay (in words), 24 h (T-47D; T47D cells, 24 h assay): active | Caspase activity (Ratio), 24 h (T-47D; T47D cells, 24 h assay): 12.1 | EC50 (T-47D; T47D cells, 24 h assay, read-out: Caspase potency EC50, 24 h): 0.7 µM

CC(C)=CCCC1(C)C=Cc2c(O)c3c(c(CC=C(C)C)c2O1)OC12C(C3=O)C(N3CCOCC3)C3CC1C(C)(C)OC2(C/C=C(/C)C(=O)N1CCN(C)CC1)C3=O (stereo not shown) [Example 4, 9,10-Dihydro-10-morpholinyl-gambogyl (N-Methylpiperazine)]
Caspase activity (Ratio) (ZR-75-1): 18 | EC50 (ZR-75-1): 3.98 µM | Caspase activity (Ratio) (T-47D; T-47D, 24 h incubation): 19 | EC50 (T-47D; [4]): 1.34 µM

CC(C)=CCCC1(C)C=Cc2c(O)c3c(c(CC=C(C)C)c2O1)OC12C(C3=O)C(N3CCCCC3)C3CC1C(C)(C)OC2(C/C=C(/C)C(=O)N1CCN(C)CC1)C3=O (stereo not shown) [Example 5, 9,10-Dihydro-10-piperidinyl-gambogyl (N-Methylpiperazine)]
Caspase activity (Ratio) (ZR-75-1): 5.3 | EC50 (ZR-75-1): 2.33 µM | Caspase activity (Ratio) (T-47D; T-47D, 24 h incubation): 23 | EC50 (T-47D; [4]): 0.846 µM

CC(C)=CCCC1(C)C=Cc2c(O)c3c(c(CC=C(C)C)c2O1)OC12C(C3=O)C(NCCN3CCOCC3)C3CC1C(C)(C)OC2(C/C=C(/C)C(=O)N1CCN(C)CC1)C3=O (stereo not shown) [Example 6, 9,10-Dihydro-10-[2-(morpholinyl)ethylamino]-gambogyl (N-Methylpiperazine)]
Caspase activity (Ratio) (ZR-75-1): 4.1 | EC50 (ZR-75-1): 1.45 µM | Caspase activity (Ratio) (T-47D; T-47D, 24 h incubation): 17 | EC50 (T-47D; [4]): 0.714 µM

CC(C)=CCCC1(C)C=Cc2c(O)c3c(c(CC=C(C)C)c2O1)OC12C(C3=O)C(N3CCN(c4ccccn4)CC3)C3CC1C(C)(C)OC2(C/C=C(/C)C(=O)N1CCN(C)CC1)C3=O (stereo not shown) [Example 7, 9,10-Dihydro-10-[4-(2-pyridyl)piperazinyl]-gambogyl (N-Methylpiperazine)]
Caspase activity (Ratio) (ZR-75-1): 1.6 | EC50 (ZR-75-1): > 10 µM | Caspase activity (Ratio) (T-47D; T-47D, 24 h incubation): 2.2 | EC50 (T-47D; [4]): 0.598 µM

CC(C)=CCCC1(C)C=Cc2c(O)c3c(c(CC=C(C)C)c2O1)OC12C(C3=O)C(OCCN(C)C)C3CC1C(C)(C)OC2(C/C=C(/C)C(=O)N1CCN(C)CC1)C3=O (stereo not shown) [Example 9, 9,10-Dihydro-10-(2-dimethylaminoethoxy)-gambogyl (N-Methylpiperazine)]
Caspase activity (Ratio) (ZR-75-1): 16 | EC50 (ZR-75-1): 5.21 µM | Caspase activity (Ratio) (T-47D; T-47D, 24 h incubation): 15 | EC50 (T-47D; [4]): 1.96 µM

CC(C)=CCCC1(C)C=Cc2c(O)c3c(c(CC=C(C)C)c2O1)OC12C(C3=O)C(N3CCOCC3)C3CC1C(C)(C)OC2(C/C=C(/C)C(=O)N1CCOCC1)C3=O (stereo not shown) [Example 10, 9,10-Dihydro-10-morpholinyl-gambogyl Morpholine]
Caspase activity (Ratio) (ZR-75-1): 7.0 | EC50 (ZR-75-1): 1.38 µM | Caspase activity (Ratio) (T-47D; T-47D, 24 h incubation): 23 | EC50 (T-47D; [4]): 0.592 µM

CC(C)=CCC[C@]1(C)C=Cc2c(O)c3c(c(CC=C(C)C)c2O1)O[C@]12C(=C[C@@H]4C[C@H]1C(C)(C)O[C@@]2(C/C=C(\C)C(=O)O)C4=O)C3=O [isogambogic acid]
Cytotoxicity (KB cell line): cytotoxic | Cytotoxicity (KB-V1 cell line): cytotoxic

CC(C)=CCc1c2c(c(O)c3c1OC14C(=CC5CC1C(C)(C)OC4(C/C=C(\C)CO)C5=O)C3=O)C=CC(C)(C)O2 (stereo not shown) [isomorellinol]
Cytotoxicity (KB cell line; KB cell line): cytotoxic | Cytotoxicity (KB-V1 cell line; KB-V1 cell line): cytotoxic
